Measured values: paper PMC5882637, “Ethanol potentiates the genotoxicity of the food-derived mammary carcinogen PhIP in human estrogen receptor-positive mammary cells: mechanistic support for lifestyle factors (cooked red meat and ethanol) associated with mammary cancer” (Archives of Toxicology, 2018)

Key:
MDA-MB-231 cells [1] = assay: Cytotoxicity (cell counting, TrypanBlue exclusion), MDA-MB-231
Experimental: (§1) Cells were cultured routinely in 75-cm^2 flasks in a humidified incubator at 37 °C, 5% CO2.
(§2) Briefly, cells were seeded at a density of 5 × 10^4 cells per well in 24-well plate. Cells were treated with PhIP or ethanol as detailed previously. Following treatment with chemicals and harvesting (48 h), cells were trypsinised, the cell concentration adjusted to 2 × 10^5 and re-suspended in serum-free R0 (serum-free media) with 2% pluronic acid medium (GIBCO, Life technologies) and cytotoxicity was determined by counting cells in a haemocytometer with TrypanBlue exclusion (GIBCO, Life technologies). For the MN assay, cells were spread on a microscope slide using a cytospin. Cells at a density of 2 × 10^4 cells per slide were fixed with 100% methanol and stained for 60 s with acridine orange (0.1 mg ml^−1 dissolved in PBS, Sigma-Aldrich). Frequency of MN was scored in 2000 cells per sample and three biological replicates were performed per treatment.

CYP1A2 mRNA expression [2] = assay: RT-qPCR CYP1A2 mRNA, MCF-7; conditions: Fig. 2a
Experimental: as §1
(§3) Following treatment, cells were lysed using TRIZOL reagent and chloroform (0.2 ml) was added in each sample and centrifuged 12,000xg (10 min 2–8 °C). The upper aqueous phase was transferred to a fresh tube and 5 µg of RNase-free glycogen (as carrier to aqueous phase) and 0.5 ml of isopropyl alcohol was added to precipitate RNA and incubated (37 °C, 10 min). Following incubation, lysates were centrifuged at 12,000xg (10 min 2–8 °C). The gel-like pellet was washed with ethanol and re-dissolved in RNase-free water with heating (55–60 °C). Extracted RNA was quantified by UV spectroscopy (UV–VIS Nano-spectrophotometer, Implen, Essex, UK) and purity was assessed from 260/280 nm and 260/230 nm ratios. Reverse transcription (RT) of extracted RNA (100–500 ng) was completed according to manufacturer’s protocol (Invitrogen) and qPCR was performed using predesigned Taqman gene expression assays and FAST PCR master mix (Taqman, Applied Biosystems, Life technologies) using a StepOnePlus fast real-time PCR system (Applied Biosystems, Life technologies). Target gene expression was normalized to GAPDH and quantified using the delta-Ct method (Livak and Schmittgen [2001]).

MCF-7 cells [3] = assay: Cytotoxicity (cell counting, TrypanBlue exclusion), MCF-7
Experimental: as §1, §2

CYP1A2 mRNA expression [4] = assay: RT-qPCR CYP1A2 mRNA, MDA-MB-231; conditions: Fig. 2c
Experimental: as §1, §3

CYP1B1 mRNA expression [5] = assay: RT-qPCR CYP1B1 mRNA, MCF-7; conditions: MCF-7
Experimental: as §1, §3

CYP2E1 mRNA expression = assay: RT-qPCR CYP2E1 mRNA, MCF-7; conditions: ICI 182,780 1 µM, Fig. 4c
Experimental: as §1
For STAT3 inhibition, cells were co-treated for 24 h with PhIP and 25 µM STAT3 inhibitor (STAT3 inhibitor VIII 5, 15 diphenylporphyrin, Millipore, Feltham, UK). STAT3 inhibitor was dissolved in DMSO. For ethanol treatment, media was supplemented with different concentrations of ethanol (10 mM-100 mM, Sigma-Aldrich) and was added to the cells. In some experiments, N-acetyl-cysteine (NAC) (10 mM, Sigma-Aldrich) diluted in phosphate-buffered saline (PBS) was added to incubations.
as §3

CYP1B1 mRNA expression [6] = assay: RT-qPCR CYP1B1 mRNA, MDA-MB-231; conditions: 24 h
Experimental: as §1, §3

MCF-7 cells [7] = assay: Micronucleus (MN) assay, MCF-7
Experimental: as §1, §2

STAT3 mRNA expression = assay: qPCR STAT3 mRNA, MCF-7; format: cell-based, human; conditions: co-treatment with PhIP, Fig. 4b
Experimental: as §1, §3

MDA-MB-231 cells [8] = assay: Micronucleus (MN) assay, MDA-MB-231
Experimental: as §1, §2

[9] = etoposide positive control (1.25 µM)

C[C@]12CC[C@@H]3c4ccc(O)cc4CC[C@H]3[C@@H]1CC[C@@H]2O [E2, Estradiol]
change in cell survival following treatment (MDA-MB-231 cells [1]; Fig. 1b): No significant change | CYP1A2 mRNA expression vs vehicle control (CYP1A2 mRNA expression [2]; 24 h, E2 1 µM): No significant change | change in cell survival following treatment (MCF-7 cells [3]; Fig. 1a): No significant change | CYP1A2 mRNA expression vs vehicle control (CYP1A2 mRNA expression [4]; 24 h, E2 1 µM): No significant change | CYP1B1 mRNA expression vs vehicle control (CYP1B1 mRNA expression [5]; 24 h, E2 1 µM, Fig. 2b): upregulated

COc1cc([C@@H]2c3cc4c(cc3[C@@H](O[C@@H]3O[C@@H]5CO[C@@H](C)O[C@H]5[C@H](O)[C@H]3O)[C@H]3COC(=O)[C@H]23)OCO4)cc(OC)c1O [Etoposide, reference compound]
Cytotoxicity (percent survival ± SD) (MDA-MB-231 cells [1]; [9]): 83.7% ± 2.3 | Cytotoxicity (percent survival ± SD) (MCF-7 cells [3]; [9]): 81.7% ±1.4

C[C@]12CC[C@@H]3c4ccc(O)cc4C[C@@H](CCCCCCCCC[S+]([O-])CCCC(F)(F)C(F)(F)F)[C@H]3[C@@H]1CC[C@@H]2O (stereo partly shown) [ICI, Fulvestrant, reference compound]
effect of ICI on CYP2E1 expression (PhIP co-treatment) (CYP2E1 mRNA expression): significantly blocked | effect of ICI on PhIP upregulation of CYP1A2 mRNA (CYP1A2 mRNA expression [2]): unaffected | effect of concurrent ICI on PhIP-mediated induction of CYP1B1 (CYP1B1 mRNA expression [6]): in MCF-7 cells only | effect of ICI co-incubation on MN induction by etoposide (MCF-7 cells [7]; Fig. 1): not affected | effect of ICI on E2-mediated genotoxicity (MCF-7 cells [7]; Fig. 1): attenuated | effect of ICI co-treatment on PhIP MN formation (MCF-7 cells [7]; p < 0.001, Fig. 1c): significantly attenuated | effect of ICI on PhIP upregulation of CYP1A2 mRNA (CYP1A2 mRNA expression [4]): unaffected | effect of ICI on PhIP-mediated STAT3 increase (STAT3 mRNA expression): inhibited | effect of ICI co-incubation on MN induction by etoposide (MDA-MB-231 cells [8]; Fig. 1): not affected | effect of ER antagonist (ICI) on DNA damaging ability of PhIP (MDA-MB-231 cells [8]; Fig. 1d): no change | effect of concurrent ICI on PhIP-mediated induction of CYP1B1 (CYP1B1 mRNA expression [5]; 24 h, p = 0.05): significantly inhibited | effect of ICI co-treatment on E2-upregulated CYP1B1 expression (CYP1B1 mRNA expression [5]; E2 1 µM, Fig. 2b): attenuated significantly
